Molecules are shown by their SMILES. Read-outs that look alike come from different tables or passages of the source. Bounds are passed on as bounds.

The subject of series [1] is HCV GT 3a (strain S52) subgenomic replicon. Nature of the series: microbe, parasite or virus in culture. As to conditions: Hepatitis C virus, GT3A, 72 h, luciferase, mean ± SD, read-out: Huh7.5-3a(S52) (HCV Replicon 3a) EC50. Format: cell-based, hepatitis C virus.
For series [2], the system named is HCV GT 4a (strain ED43) subgenomic replicon. Nature of the series: microbe, parasite or virus in culture. It is filed as cell-based, hepatitis C virus. The conditions noted are these: Hepatitis C virus, GT4A, 72 h; luciferase; mean ± SD; read-out: Huh7.5-4a(ED43) (HCV Replicon 4a) EC50.
In series [3] the test system is YFV (strain 17D) subgenomic replicon. The series can be described thus: microbe, parasite or virus in culture. Format: cell-based, yellow fever virus. As to conditions: Yellow fever virus, 72 h, read-out: Huh7-YF (YFV Replicon 17D) EC50. A general note: In antiviral work, replicon cells carry a viral genome segment that copies itself.
In series [4] the test system is DENV serotype 2 (strain 16681) subgenomic replicon. The series can be described thus: microbe, parasite or virus in culture. Format: cell-based, dengue virus. The conditions noted are these: Dengue virus, DENV2; 72 h; luciferase; mean ± SD; read-out: Huh7-D2 (DENV-2 Replicon) EC50.
Series [5] deals with bloodstream form T. b. brucei (strain 221). As to conditions: for increase in activity against T. brucei relative to parent compound: 38, 40, 41 versus parent 36, 42 versus parent 37; for SI (CC50 for L6 cells / EC50 for T. brucei): selectivity index; for EC50: read-out: T. brucei EC50, cultured bloodstream form, mean of triplicate experiments ± SEM.
The subject of series [6] is T. cruzi (CL Brener strain) epimastigotes. As to conditions: selectivity index.
Series [7] deals with bloodstream form T. b. brucei (strain 221). The series can be described thus: microbe, parasite or virus in culture. As to conditions: Trypanosoma brucei, mean of triplicate experiments ± SEM; for EC50: read-out: T. brucei EC50, cultured bloodstream form; for EC90: read-out: T. brucei EC90, cultured bloodstream form.
The test system of series [8] is T. cruzi (CL Brener strain) epimastigotes. Nature of the series: microbe, parasite or virus in culture. The conditions noted are these: Trypanosoma cruzi; for EC50: read-out: T. cruzi EC50; for EC90: read-out: T. cruzi EC90.
Series [9] is described as follows: Cytotoxicity against cultured L6 cells (resazurin). As to conditions: rat, L6 rat skeletal myoblast cells, L6 Cells CC50, mean of triplicate experiments ± SEM. (In general: Resazurin is reduced to fluorescent resorufin, in cell work by metabolically active cells.)
A short description of series [10]: Cytotoxicity in Huh5-2 replicon cells (intracellular ATP levels). As to conditions: human.
Series [11] concerns rat skeletal myoblast L6 cells. Nature of the series: Cytotoxicity against cultured L6 cells (resazurin). As to conditions: read-out: L6 Cells CC50; mean of triplicate experiments ± SEM.
In a further series the test system is HCV. More on the design: method as in doi:10.1039/C5MD00439J. The conditions noted are these: read-out: Antiviral activity (Hepatitis C) EC50; cited from earlier work.
The subject of series [12] is bloodstream form T. b. brucei (strain 221). The conditions noted are these: cited from earlier work.
[13] abbreviates: earlier lead compounds, read-out: T. brucei EC50.

As for `CN1C(=O)N(CC(=O)NO)C(=O)C12CCC(c1ccccc1)CC2` (centres unmarked) [Compound 38, N-Hydroxy-2-(1-methyl-2,4-dioxo-8-phenyl-1,3-diazaspiro [4.5]decan-3-yl)acetamide], the 50% effective concentration (EC50) in series [1] was 0.63 ± 0.01 µM; in series [2] it was 0.22 µM; in series [3], more than 10 µM; in series [4], 10.2 ± 0.18 µM; in [7], 0.1 ± 0.01 µM; in [8], 6.25 ± 0.24 µM. Further, the “increase in activity against T. brucei relative to parent compound” value in series [5] is listed as 9 fold. For the same molecule, in series [5], the “SI (CC50 for L6 cells / EC50 for T. brucei)” value is reported as 220. In addition, the “SI (CC50 for L6 cells / EC50 for T. cruzi)” value in [6] was determined as 4. Also, the EC90 in [7] stood at 0.14 ± 0.01 µM; in [8] it was 13.3 ± 0.3 µM. Also, the half-maximal cytotoxic concentration (CC50) at 6 days in [9] was determined as 21.7 ± 3.9 µM. The molecule also yielded a CC50 at 72 h in series [10] of 43.1 ± 2.11 µM.
Turning to `O=C(CN1C(=O)N(Cc2ccccc2)C2(CCCCC2c2ccccc2)C1=O)NO` (centres unmarked) [Compound 42, N-Hydroxy-2-(1-benzyl-2,4-dioxo-6-phenyl-1,3-diazaspiro [4.5]decan-3-yl)acetamide], the EC50 was more than 10 µM in series [1]; 0.45 ± 0.02 µM in series [2]; 4.68 ± 0.23 µM in series [3]; 1.37 ± 0.08 µM in [4]; 0.191 ± 0.006 µM in [5]; 0.19 ± 0.01 µM in series [7]. Moreover, in [8], the EC50 stood at 1.95 ± 0.05 µM. In addition, in series [5], the “increase in activity against T. brucei relative to parent compound” value stood at 23 fold. Moreover, the “SI (CC50 for L6 cells / EC50 for T. brucei)” value in series [5] was found to be 62. The “SI (CC50 for L6 cells / EC50 for T. cruzi)” value in [6] was 6. The EC90 in series [7] worked out at 0.237 ± 0.003 µM; in series [8] it was 3.12 ± 0.12 µM. Further, the CC50 at 6 days in [9] is 11.9 ± 0.7 µM. Moreover, half-maximal cytotoxicity in series [10] (CC50 at 72 h) was put at 9.37 ± 0.182 µM.
On to `CN1C(=O)N(CC(=O)NO)C(=O)C12CCCCC2c1ccccc1` (centres unmarked) [Compound 39, N-Hydroxy-2-(1-methyl-2,4-dioxo-6-phenyl-1,3-diazaspiro [4.5]decan-3-yl)acetamide], for which the EC50 in series [1] was more than 10 µM; in series [2], more than 10 µM; in series [3], more than 10 µM; in series [4], 4.62 ± 0.39 µM; in [7] it was 1.46 ± 0.06 µM; in [8] it was more than 30 µM. For the same molecule, the “SI (CC50 for L6 cells / EC50 for T. brucei)” value in series [5] is recorded as 150. For the same molecule, the EC90 in series [7] is 1.75 ± 0.02 µM. The molecule also yielded a CC50 at 6 days in series [9] of 217 ± 6 µM. In addition, the CC50 at 72 h in series [10] was more than 10 µM.
Regarding `O=C(CN1C(=O)NC2(CCCCC2c2ccccc2)C1=O)NO` (centres unmarked) [Compound 37, N-Hydroxy-2-(2,4-dioxo-6-phenyl-1,3-diazaspiro [4.5]decan-3-yl) acetamide], the 50% effective concentration (EC50) was more than 10 µM in series [1]; more than 10 µM in series [2]; more than 10 µM in series [3]; more than 10 µM in [4]; 4.41 ± 0.22 µM in [7]; more than 30 µM in [8]. Further, in series [5] (2-phenyl versus 4-phenyl cyclohexane ring), the “T. brucei EC50 fold higher than that of 36” value is 5 fold. In addition, in series [5], the “SI (CC50 for L6 cells / EC50 for T. brucei)” value came to 55. The EC90 in [7] came out at 5.92 ± 0.09 µM. For the same molecule, the CC50 at 6 days in series [9] was more than 200 µM. Further, the cytotoxic concentration (CC50) in series [11] is 246 ± 3 µM. The molecule further showed a CC50 at 72 h in series [10] of more than 10 µM.
As to `CC(C(=O)NO)N1C(=O)N(C)C2(CCC(c3ccccc3)CC2)C1=O` (centres unmarked) [Compound 53, N-(hydroxy)-2-(1-methyl-2,4-dioxo-8-phenyl-1,3-diazaspiro [4.5]decan-3-yl)propanamide], the EC50 in series [1] was more than 10 µM; in [2] it was 0.28 ± 0.02 µM; in [3], more than 10 µM; in [4], 2.45 ± 0.22 µM; in series [7] it was 0.154 ± 0.009 µM; in series [8], 8.5 ± 0.23 µM. For the same molecule, in series [5], the “SI (CC50 for L6 cells / EC50 for T. brucei)” value came to 590. Also, the “SI (CC50 for L6 cells / EC50 for T. cruzi)” value in series [6] is recorded as 11. Besides, the EC90 in [7] worked out at 0.281 ± 0.006 µM; in series [8], 11.9 ± 0.5 µM. The molecule also displayed a cytotoxic concentration (CC50) at 6 days in [9] of 90.5 ± 7.3 µM. This molecule also came in with a CC50 at 72 h in series [10] of 100 ± 3.57 µM.
For `O=C(CN1C(=O)N(Cc2ccccc2)C2(CCC(c3ccccc3)CC2)C1=O)NO` (centres unmarked) [Compound 41, N-Hydroxy-2-(1-benzyl-2,4-dioxo-8-phenyl-1,3-diazaspiro [4.5]decan-3-yl)acetamide], the EC50 is more than 10 µM in [1]; more than 10 µM in [2]; more than 10 µM in [3]; more than 10 µM in series [4]; 0.009 ± 0.001 µM in series [7]; 0.34 ± 0.02 µM in series [8]. The “increase in activity against T. brucei relative to parent compound” value in [5] stood at 100 fold. In addition, the “SI (CC50 for L6 cells / EC50 for T. brucei)” value in series [5] is given as 440. Moreover, in series [6], the “SI (CC50 for L6 cells / EC50 for T. cruzi)” value is listed as 12. In addition, the EC90 was found to be 0.011 ± 0.001 µM in series [7] and 0.74 ± 0.05 µM in series [8]. This molecule yielded a CC50 at 6 days in series [9] of 3.98 ± 0.32 µM. The same molecule came in with a 50% cytotoxic concentration (CC50) at 72 h in [10] of more than 10 µM.
In the case of `O=C(CN1C(=O)NC2(CCC(c3ccccc3)CC2)C1=O)NO` (centres unmarked) [Compound 36, N-Hydroxy-2-(2,4-dioxo-8-phenyl-1,3-diazaspiro [4.5]decan-3-yl) acetamide], the EC50 in series [1] was 0.75 ± 0.13 µM; in [2] it was 0.39 ± 0.01 µM; in [3], more than 10 µM; in series [4], 4.64 ± 0.11 µM; in series [7] it was 0.88 ± 0.1 µM; in series [8] it was more than 30 µM. In addition, the “SI (CC50 for L6 cells / EC50 for T. brucei)” value in [5] is 70. For the same molecule, the EC90 in series [7] came out at 1.18 ± 0.04 µM. The CC50 at 6 days in series [9] amounted to 60.8 ± 8.2 µM. The same molecule returned a CC50 at 72 h in series [10] of 75.4 ± 8.46 µM.
As for `O=C1Cn2c(cc3ccccc32)C(=O)N1O` [I], the EC50 in the series with HCV was 126 ± 14.2 µM.
Regarding `O=C(CN1C(=O)NC2(CCCCc3ccccc32)C1=O)NO` (centres unmarked) [IV], the EC50 in series [12] (setting [13]) was 0.4 ± 0.04 µM.
With `O=C(CN1C(=O)NC2(CCc3ccccc32)C1=O)NO` (centres unmarked) [III], the concentration for a half-maximal effect (EC50) in [12] (setting [13]) is 0.44 ± 0.08 µM.
As to `CCN1C(=O)N(CC(=O)NO)C(=O)C12CCC(c1ccccc1)CC2` (centres unmarked) [Compound 40, N-Hydroxy-2-(1-ethyl-2,4-dioxo-8-phenyl-1,3-diazaspiro [4.5]decan-3-yl)acetamide], the EC50 in series [1] was determined as 0.52 ± 0.08 µM; in series [2], 0.31 ± 0.13 µM; in [3] it was 6.67 ± 0.05 µM; in series [4], 0.68 ± 0.03 µM; in series [7] it was 0.029 ± 0.001 µM; in series [8] it was 1.12 ± 0.03 µM. Moreover, in series [5], the “increase in activity against T. brucei relative to parent compound” value stood at 30 fold. Also, the “SI (CC50 for L6 cells / EC50 for T. brucei)” value in [5] came to 1870. Also, the “SI (CC50 for L6 cells / EC50 for T. cruzi)” value in series [6] stood at 48. For the same molecule, the figures for the EC90 in series [7] and in series [8] were 0.055 ± 0.003 µM and 1.86 ± 0.04 µM, respectively. Also, the CC50 at 6 days in [9] was 54.3 ± 5.9 µM. In series [10], the half-maximal cytotoxic concentration (CC50) at 72 h amounted to 10.6 ± 0.12 µM.
On to `O=C(CN1C(=O)CNC2(CCCCCC2)C1=O)NO` [II], for which the EC50 in series [12] (read-out: Trypanocidal activity (T. brucei) EC50) is 1.87 ± 0.08 µM.
For `CC(C(=O)NO)N1C(=O)NC2(CCC(c3ccccc3)CC2)C1=O` (centres unmarked) [Compound 49, N-(Hydroxy)-2-(2,4-dioxo-8-phenyl-1,3-diazaspiro [4.5]decan-3-yl)propanamide], the EC50 in series [1] is more than 10 µM; in [2], more than 10 µM; in series [3] it was 7.98 ± 0.18 µM; in [4] it was more than 10 µM; in series [5] it was 0.876 ± 0.051 µM; in series [7], 0.88 µM. Also, the EC50 in series [8] was more than 30 µM. In addition, in series [5], the “SI (CC50 for L6 cells / EC50 for T. brucei)” value is given as 270. For the same molecule, the EC90 in [7] was found to be 1.42 ± 0.19 µM. Also, in series [9], the cytotoxic concentration (CC50) at 6 days was more than 200 µM. For the same molecule, the CC50 in series [11] is 233 ± 33 µM. Also, the CC50 at 72 h in [10] was more than 10 µM.

By EC50 is commonly meant the concentration giving half of the maximal effect. A word on the EC90: it is the concentration at which the effect reaches the 90% level. Broadly, the CC50 is the concentration that lowers cell viability or growth by half.

Values taken from PMC10385743.
